# Measured values reported in US12029728B2, “Small molecules with anti-protozoan activity” (New Mexico Tech University Research Park Corporation, priority 2018, dated 2024).
# Test system: PBMC cells
# Experiment: MTT toxicity assay on PBMC / monocyte-derived macrophages
# Assay type: cell-based, Human
# Settings: 5 (μM) MTF, 48 hours
# Protocol: Human peripheral blood mononuclear cells (PBMC) were plated onto polylysine-coated glass slides in 24-well plates and allowed to differentiate towards monocyte-derived macrophages (MDMs). Non-adherent cells were removed 48-hours post plating. Adherent monocytes were left to further differentiate for another 48 hours to MDMs. Following the completion of the differentiation period, MDMs were treated with vehicle control (DMSO), […], or 10 μM of Compound 1, Compound 3, Compound 4, Compound 6, Compound 7, Compound 8, Compound 9, Compound 10, or Compound 11 for 48 hours.
compound,measurement,value
"CCCCCCCCCCCCCCCCOP(=O)([O-])OCC[N+](C)(C)C [MTF, miltefosine]",toxicity to PBMC cells (MTT),not toxic
